Data as given in the supplement of paper PMC10307832.

Tests used:
Assay in all cases: relative viability (nuclei count vs DMSO), 5 days (fraction); higher = more cells survive
COR-L23 = test system: COR-L23
Procedure, shortened: (§1)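 A single step with final 0.05% Triton X-100, 1% formaldehyde and 1 ug/ml Hoechst fixed the cells and stained nuclei 5 days after treatment. Lung cancer cell lines in 1536-well plates had been treated by pin tool the day after seeding with one drug alone or a fixed anchor-drug dose plus five library-drug doses (not always all listed) in √10 steps, and nuclei were counted on 4× images. Relative viability is the ratio of nuclei in treated wells to nuclei in vehicle wells, taken as the median of duplicate plates.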

ChaGo-K-1 = test system: ChaGo-K-1
Procedure, shortened: as §1

EMC-BAC-2 = test system: EMC-BAC-2
Procedure, shortened: as §1

EPLC-272H = test system: EPLC-272H
Procedure, shortened: as §1

HCC-44 = test system: HCC-44
Procedure, shortened: as §1

LCLC-103H = test system: LCLC-103H
Procedure, shortened: as §1

LK-2 = test system: LK-2
Procedure, shortened: as §1

NCI-H1666 = test system: NCI-H1666
Procedure, shortened: as §1

NCI-H1944 = test system: NCI-H1944
Procedure, shortened: as §1

NCI-H1975 = test system: NCI-H1975
Procedure, shortened: as §1

NCI-H2023 = test system: NCI-H2023
Procedure, shortened: as §1

NCI-H2087 = test system: NCI-H2087
Procedure, shortened: as §1

NCI-H2126 = test system: NCI-H2126
Procedure, shortened: as §1

NCI-H2228 = test system: NCI-H2228
Procedure, shortened: as §1

NCI-H2405 = test system: NCI-H2405
Procedure, shortened: as §1

NCI-H3122 = test system: NCI-H3122
Procedure, shortened: as §1

NCI-H322M = test system: NCI-H322M
Procedure, shortened: as §1

NCI-H441 = test system: NCI-H441
Procedure, shortened: as §1

NCI-H460 = test system: NCI-H460
Procedure, shortened: as §1

NCI-H596 = test system: NCI-H596
Procedure, shortened: as §1

PC-14 = test system: PC-14
Procedure, shortened: as §1

SW 1573 = test system: SW 1573
Procedure, shortened: as §1

SW 900 = test system: SW 900
Procedure, shortened: as §1

SMILES: Cc1cn(-c2cc(NC(=O)c3ccc(C)c(Nc4nccc(-c5cccnc5)n4)c3)cc(C(F)(F)F)c2)cn1 [Nilotinib] + Nc1nc2[nH]cc(CCc3ccc(C(=O)N[C@@H](CCC(=O)O)C(=O)O)cc3)c2c(=O)[nH]1 [Pemetrexed] (partner 0.2 µM)
- relative viability (COR-L23; first compound 0.001 µM): 0.187
- relative viability (COR-L23; first compound 0.003162 µM): 0.183
- relative viability (COR-L23; first compound 0.01 µM): 0.19
- relative viability (COR-L23; first compound 0.03162 µM): 0.163
- relative viability (COR-L23; first compound 0.1 µM): 0.163
- relative viability (ChaGo-K-1; first compound 0.001 µM): 0.27
- relative viability (ChaGo-K-1; first compound 0.003162 µM): 0.244
- relative viability (ChaGo-K-1; first compound 0.01 µM): 0.228
- relative viability (ChaGo-K-1; first compound 0.03162 µM): 0.229
- relative viability (ChaGo-K-1; first compound 0.1 µM): 0.215
- relative viability (EMC-BAC-2; first compound 0.001 µM): 0.427
- relative viability (EMC-BAC-2; first compound 0.003162 µM): 0.618
- relative viability (EMC-BAC-2; first compound 0.01 µM): 0.471
- relative viability (EMC-BAC-2; first compound 0.03162 µM): 0.46
- relative viability (EMC-BAC-2; first compound 0.1 µM): 0.437
- relative viability (EPLC-272H; first compound 0.001 µM): 0.239
- relative viability (EPLC-272H; first compound 0.003162 µM): 0.324
- relative viability (EPLC-272H; first compound 0.01 µM): 0.195
- relative viability (EPLC-272H; first compound 0.03162 µM): 0.309
- relative viability (EPLC-272H; first compound 0.1 µM): 0.171
- relative viability (HCC-44; first compound 0.001 µM): 0.662
- relative viability (HCC-44; first compound 0.003162 µM): 0.574
- relative viability (HCC-44; first compound 0.01 µM): 0.613
- relative viability (HCC-44; first compound 0.1 µM): 0.66
- relative viability (LCLC-103H; first compound 0.001 µM): 0.447
- relative viability (LCLC-103H; first compound 0.003162 µM): 0.409
- relative viability (LCLC-103H; first compound 0.01 µM): 0.438
- relative viability (LCLC-103H; first compound 0.03162 µM): 0.467
- relative viability (LCLC-103H; first compound 0.1 µM): 0.351
- relative viability (LK-2; first compound 0.001 µM): 0.184
- relative viability (LK-2; first compound 0.003162 µM): 0.3
- relative viability (LK-2; first compound 0.01 µM): 0.332
- relative viability (LK-2; first compound 0.03162 µM): 0.193
- relative viability (LK-2; first compound 0.1 µM): 0.225
- relative viability (NCI-H1666; first compound 0.001 µM): 0.768
- relative viability (NCI-H1666; first compound 0.003162 µM): 0.78
- relative viability (NCI-H1666; first compound 0.01 µM): 0.846
- relative viability (NCI-H1666; first compound 0.03162 µM): 0.717
- relative viability (NCI-H1666; first compound 0.1 µM): 0.9
- relative viability (NCI-H1944; first compound 0.001 µM): 0.56
- relative viability (NCI-H1944; first compound 0.003162 µM): 0.519
- relative viability (NCI-H1944; first compound 0.01 µM): 0.566
- relative viability (NCI-H1944; first compound 0.03162 µM): 0.578
- relative viability (NCI-H1944; first compound 0.1 µM): 0.265
- relative viability (NCI-H1975; first compound 0.001 µM): 0.294
- relative viability (NCI-H1975; first compound 0.003162 µM): 0.298
- relative viability (NCI-H1975; first compound 0.01 µM): 0.257
- relative viability (NCI-H1975; first compound 0.03162 µM): 0.211
- relative viability (NCI-H1975; first compound 0.1 µM): 0.235
- relative viability (NCI-H2023; first compound 0.001 µM): 0.213
- relative viability (NCI-H2023; first compound 0.003162 µM): 0.264
- relative viability (NCI-H2023; first compound 0.01 µM): 0.223
- relative viability (NCI-H2023; first compound 0.03162 µM): 0.189
- relative viability (NCI-H2023; first compound 0.1 µM): 0.14
- relative viability (NCI-H2087; first compound 0.001 µM): 0.67
- relative viability (NCI-H2087; first compound 0.003162 µM): 0.745
- relative viability (NCI-H2087; first compound 0.01 µM): 0.555
- relative viability (NCI-H2087; first compound 0.03162 µM): 0.614
- relative viability (NCI-H2087; first compound 0.1 µM): 0.341
- relative viability (NCI-H2126; first compound 0.001 µM): 0.68
- relative viability (NCI-H2126; first compound 0.003162 µM): 0.767
- relative viability (NCI-H2126; first compound 0.01 µM): 0.79
- relative viability (NCI-H2126; first compound 0.03162 µM): 0.656
- relative viability (NCI-H2126; first compound 0.1 µM): 0.47
- relative viability (NCI-H2228; first compound 0.001 µM): 0.358
- relative viability (NCI-H2228; first compound 0.003162 µM): 0.357
- relative viability (NCI-H2228; first compound 0.01 µM): 0.282
- relative viability (NCI-H2228; first compound 0.03162 µM): 0.216
- relative viability (NCI-H2228; first compound 0.1 µM): 0.165
- relative viability (NCI-H2405; first compound 0.001 µM): 1.03
- relative viability (NCI-H2405; first compound 0.003162 µM): 0.91
- relative viability (NCI-H2405; first compound 0.01 µM): 0.924
- relative viability (NCI-H2405; first compound 0.03162 µM): 0.699
- relative viability (NCI-H2405; first compound 0.1 µM): 0.614
- relative viability (NCI-H3122; first compound 0.001 µM): 0.18
- relative viability (NCI-H3122; first compound 0.003162 µM): 0.226
- relative viability (NCI-H3122; first compound 0.01 µM): 0.212
- relative viability (NCI-H3122; first compound 0.03162 µM): 0.2
- relative viability (NCI-H3122; first compound 0.1 µM): 0.195
- relative viability (NCI-H322M; first compound 0.001 µM): 0.757
- relative viability (NCI-H322M; first compound 0.003162 µM): 0.774
- relative viability (NCI-H322M; first compound 0.01 µM): 0.576
- relative viability (NCI-H322M; first compound 0.03162 µM): 0.593
- relative viability (NCI-H322M; first compound 0.1 µM): 0.645
- relative viability (NCI-H441; first compound 0.001 µM): 0.261
- relative viability (NCI-H441; first compound 0.003162 µM): 0.26
- relative viability (NCI-H441; first compound 0.01 µM): 0.225
- relative viability (NCI-H441; first compound 0.03162 µM): 0.229
- relative viability (NCI-H441; first compound 0.1 µM): 0.186
- relative viability (NCI-H460; first compound 0.001 µM): 0.0733
- relative viability (NCI-H460; first compound 0.003162 µM): 0.0599
- relative viability (NCI-H460; first compound 0.01 µM): 0.0632
- relative viability (NCI-H460; first compound 0.03162 µM): 0.0736
- relative viability (NCI-H460; first compound 0.1 µM): 0.0505
- relative viability (NCI-H596; first compound 0.001 µM): 0.49
- relative viability (NCI-H596; first compound 0.003162 µM): 0.423
- relative viability (NCI-H596; first compound 0.01 µM): 0.491
- relative viability (NCI-H596; first compound 0.03162 µM): 0.513
- relative viability (NCI-H596; first compound 0.1 µM): 0.371
- relative viability (PC-14; first compound 0.001 µM): 0.139
- relative viability (PC-14; first compound 0.003162 µM): 0.19
- relative viability (PC-14; first compound 0.01 µM): 0.0904
- relative viability (PC-14; first compound 0.03162 µM): 0.0585
- relative viability (PC-14; first compound 0.1 µM): 0.0757
- relative viability (SW 1573; first compound 0.001 µM): 0.801
- relative viability (SW 1573; first compound 0.003162 µM): 0.994
- relative viability (SW 1573; first compound 0.01 µM): 0.91
- relative viability (SW 1573; first compound 0.03162 µM): 0.541
- relative viability (SW 1573; first compound 0.1 µM): 0.171
- relative viability (SW 900; first compound 0.003162 µM): 0.459
- relative viability (SW 900; first compound 0.01 µM): 0.38
- relative viability (SW 900; first compound 0.03162 µM): 0.239
- relative viability (SW 900; first compound 0.1 µM): 0.245
